From patent US20100022582A1, “Tetrahydroisoquinoline Compound and Medicinal Use Thereof” (priority 2005, published 2010)

test system: liver ACAT; assay: ACAT inhibitory activity (rabbit liver microsome, cholesteryl oleate production); assay type: biochemical, Japanese white rabbits; conditions: 37° C. for 20 min
Procedure: Male Japanese white rabbits (body weight 2-2.5 kg) were bred on 100 g of a high cholesterol feed (feed added with cholesterol 1%, CLEA Japan, Inc.) daily for 4 weeks and sacrificed by exsanguination under anesthesia. The liver was removed, homogenated and centrifuged at 10,000 rpm and 4° C. for 15 min. The obtained supernatant was further centrifuged at 41,000 rpm and 4° C. for 60 min to give a microsome fraction. To a 0.15 M phosphate buffer were added the microsome suspension as an enzyme specimen, dimethyl sulfoxide (DMSO) or a solution (3 μL) of a test compound in DMSO and [1-14C]-oleoyl-CoA to be a reaction substrate to the total amount of 300 μL. After incubation at 37° C. for 20 min, a mixed solution of chloroform-methanol was added to quench the reaction. Water was added thereto and mixed, and the chloroform layer was separated. The solvent was evaporated to dryness and the residue was redissolved in n-hexane. The resulting solution was subjected to thin layer chromatography using a silica gel plate. The spot of cholesteryl oleate on the silica gel plate was scraped and quantified on a liquid scintillation counter. The ACAT inhibitory activity of the test compound is shown in cholesteryl oleate production inhibitory rate (%) [level of inhibition of cholesteryl oleate production as compared to the control].

Row | SMILES | liver ACAT inhibition rate (%) (concentration: 10^−6 M)
1 | CCC(C)(C)C(=O)N1Cc2cc(N(C)C)ccc2C[C@@H]1C(=O)Nc1cc(C)c(O)c(C)c1C.Cl [Example 75, 7-dimethylamino-2-(2,2-dimethylbutyryl)-N-(4-hydroxy-2,3,5-trimethylphenyl)-1,2,3,4-tetrahydroisoquinoline-(3R)-carboxamide hydrochloride] | 88.8%
2 | CCCCCCCC(=O)N1Cc2ccccc2C[C@H]1C(=O)Nc1cc(C)c(O)c(C)c1C [Example 49, N-(4-hydroxy-2,3,5-trimethylphenyl)-2-octanoyl-1,2,3,4-tetrahydroisoquinoline-(3S)-carboxamide] | 96.8%
3 | Cc1cc(NC(=O)[C@@H]2Cc3ccc(NS(C)(=O)=O)cc3CN2C(=O)CC(C)(C)C)c(C)c(C)c1O [Example 106, 2-(3,3-dimethylbutyryl)-N-(4-hydroxy-2,3,5-trimethylphenyl)-7-methanesulfonylamino-1,2,3,4-tetrahydroisoquinoline-(3S)-carboxamide] | 89.6%
4 | CCCCCCCC(=O)N1Cc2cc(N(C)C)ccc2C[C@H]1C(=O)Nc1c(C)cc(C)cc1C [Example 76, 7-dimethylamino-2-octanoyl-N-(2,4,6-trimethylphenyl)-1,2,3,4-tetrahydroisoquinoline-(3S)-carboxamide] | 76.7%
5 | CCCCCC(=O)N1Cc2cc(O)ccc2C[C@H]1C(=O)Nc1c(C(C)C)cc(N)cc1C(C)C.Cl [Example 114, N-(4-amino-2,6-diisopropylphenyl)-2-hexanoyl-7-hydroxy-1,2,3,4-tetrahydroisoquinoline-(3S)-carboxamide hydrochloride] | 87.5%
6 | CCC(C)(C)C(=O)N1Cc2cc(N)ccc2C[C@H]1C(=O)Nc1cc(C)c(O)c(C)c1C.Cl [Example 104, 7-amino-2-(2,2-dimethylbutyryl)-N-(4-hydroxy-2,3,5-trimethylphenyl)-1,2,3,4-tetrahydroisoquinoline-(3S)-carboxamide hydrochloride] | 80.6%
7 | CCCCCC(=O)N1Cc2cc(N)ccc2C[C@H]1C(=O)Nc1cc(C)c(O)c(C)c1C.Cl [Example 80, 7-amino-2-hexanoyl-N-(4-hydroxy-2,3,5-trimethylphenyl)-1,2,3,4-tetrahydroisoquinoline-(3S)-carboxamide hydrochloride] | 93.4%
8 | CCCCCCCC(=O)N1Cc2ccccc2C[C@H]1C(=O)Nc1c(C)cc(C)cc1C [Example 9, 2-octanoyl-N-(2,4,6-trimethylphenyl)-1,2,3,4-tetrahydroisoquinoline-(3S)-carboxamide] | 88.6%
9 | CCCCCC(=O)N1Cc2cc(O)ccc2C[C@H]1C(=O)Nc1cc(C)c(O)c(C)c1C [Example 116, 2-hexanoyl-7-hydroxy-N-(4-hydroxy-2,3,5-trimethylphenyl)-1,2,3,4-tetrahydroisoquinoline-(3S)-carboxamide] | 97.2%
10 | CCCCCCCC(=O)N1Cc2ccccc2C[C@@H]1C(=O)Nc1c(C)cc(C)cc1C [Example 26, 2-octanoyl-N-(2,4,6-trimethylphenyl)-1,2,3,4-tetrahydroisoquinoline-(3R)-carboxamide] | 83.8%
11 | CCCCCCCC(=O)N1Cc2ccccc2C[C@H]1C(=O)Nc1c(C(C)C)cccc1C(C)C [Example 3, N-(2,6-diisopropylphenyl)-2-octanoyl-1,2,3,4-tetrahydroisoquinoline-(3S)-carboxamide] | 93.3%

test system: THP-1 cell-derived macrophage; assay: Cholesterol ester accumulation-inhibitory activity (THP-1 cell-derived macrophage foam cell formation); assay type: cell-based; conditions: THP-1 macrophage, acetyl LDL, 3 days
Procedure: THP-1 cells (DAINIPPON PHARMACEUTICAL CO., LTD.) were subcultured in RPMI-1640 medium containing 10% fetal calf serum (FBS), and cells at 6-13th passage after purchase were used. The cells were suspended in FBS-containing RPMI-1640 medium to give a suspension having a concentration of 4×10^5 cells/mL. The cell suspension was seeded on 12-well microplate by 1 mL, and treated with phorbol 12-myristate 13-acetate (PMA, 200 nM) as a differentiation inducer into macrophage. Then, acetyl LDL (400 μg/mL) separately prepared from LDL derived from plasma of a rabbit with genetic hyperlipidemia (KHC rabbit, Japan Laboratory Animals Inc.) was added. A test compound further dissolved in dimethyl sulfoxide (DMSO) and diluted with FBS-containing RPMI-1640 medium and a control solvent were applied. After cultivation in a carbon dioxide incubator for 3 days, the cells were washed with phosphate-buffered saline (pH 7.0), and the lipid was extracted with hexane-isopropanol (3:2). In addition, the cells were lysed with 1N-NaOH, and the protein content was measured. Free cholesterol and cholesterol ester in the lipid extraction sample were measured according to the method of Kunitomo et al. [Japan. J. Pharmacol., 34, 153-158 (1984)]. Cholesterol esters in the control cells and the cells treated with the test compound were compared, and the cholesterol ester accumulation inhibitory rate of the test compound was calculated.

Row | SMILES | cholesteryl ester accumulation inhibitory rate (%) (concentration: 10^−6 M)
12 | CCCCCC(=O)N1Cc2cc(N3CCNCC3)ccc2C[C@H]1C(=O)Nc1cc(C)c(O)c(C)c1C [Example 121, 2-hexanoyl-N-(4-hydroxy-2,3,5-trimethylphenyl)-7-(piperazin-1-yl)-1,2,3,4-tetrahydroisoquinoline-(3S)-carboxamide] | 86.8%
13 | CCC(C)(C)C(=O)N1Cc2cc(N(C)C)ccc2C[C@@H]1C(=O)Nc1cc(C)c(O)c(C)c1C.Cl [Example 75, 7-dimethylamino-2-(2,2-dimethylbutyryl)-N-(4-hydroxy-2,3,5-trimethylphenyl)-1,2,3,4-tetrahydroisoquinoline-(3R)-carboxamide hydrochloride] | 93.4%
14 | CCCC(=O)N1Cc2cc(N(C)C)ccc2C[C@H]1C(=O)Nc1cc(C)c(O)c(C)c1C.Cl [Example 71, 2-butyryl-7-dimethylamino-N-(4-hydroxy-2,3,5-trimethylphenyl)-1,2,3,4-tetrahydroisoquinoline-(3S)-carboxamide hydrochloride] | 79.2%
15 | CCCCCC(=O)N1Cc2cc(N(C)C)ccc2C[C@@H]1C(=O)Nc1cc(C)c(O)c(C)c1C.Cl [Example 74, 7-dimethylamino-2-hexanoyl-N-(4-hydroxy-2,3,5-trimethylphenyl)-1,2,3,4-tetrahydroisoquinoline-(3R)-carboxamide hydrochloride] | 74.7%
16 | Cc1cc(NC(=O)[C@@H]2Cc3ccc(NS(C)(=O)=O)cc3CN2C(=O)CC(C)(C)C)c(C)c(C)c1O [Example 106, 2-(3,3-dimethylbutyryl)-N-(4-hydroxy-2,3,5-trimethylphenyl)-7-methanesulfonylamino-1,2,3,4-tetrahydroisoquinoline-(3S)-carboxamide] | 76.9%
17 | CCCCCC(=O)N1Cc2cc(NS(C)(=O)=O)ccc2C[C@H]1C(=O)Nc1cc(C)c(O)c(C)c1C [Example 95, 2-hexanoyl-N-(4-hydroxy-2,3,5-trimethylphenyl)-7-methanesulfonylamino-1,2,3,4-tetrahydroisoquinoline-(3S)-carboxamide] | 80.4%
18 | CCC(C)(C)C(=O)N1Cc2cc(N)ccc2C[C@H]1C(=O)Nc1cc(C)c(O)c(C)c1C.Cl [Example 104, 7-amino-2-(2,2-dimethylbutyryl)-N-(4-hydroxy-2,3,5-trimethylphenyl)-1,2,3,4-tetrahydroisoquinoline-(3S)-carboxamide hydrochloride] | 77.3%
19 | CCCCCC(=O)N1Cc2cc(N)ccc2C[C@H]1C(=O)Nc1cc(C)c(O)c(C)c1C.Cl [Example 80, 7-amino-2-hexanoyl-N-(4-hydroxy-2,3,5-trimethylphenyl)-1,2,3,4-tetrahydroisoquinoline-(3S)-carboxamide hydrochloride] | 94.5%
20 | CCCCCC(=O)N1Cc2cc(OCCN3CCCC3)ccc2C[C@H]1C(=O)Nc1cc(C)c(O)c(C)c1C.Cl [Example 118, 2-hexanoyl-N-(4-hydroxy-2,3,5-trimethylphenyl)-7-[2-(pyrrolidin-1-yl)ethoxy]-1,2,3,4-tetrahydroisoquinoline-(3S)-carboxamide hydrochloride] | 68.6%
21 | CCC(C)(C)C(=O)N1Cc2ccccc2C[C@H]1C(=O)Nc1c(C)cc(C)c(NS(C)(=O)=O)c1C [Example 19, 2-(2,2-dimethylbutyryl)-N-(3-methanesulfonylamino-2,4,6-trimethylphenyl)-1,2,3,4-tetrahydroisoquinoline-(3S)-carboxamide] | 66.4%
22 | Cc1cc(NC(=O)[C@@H]2Cc3ccc(N4CCCC4)cc3CN2C(=O)C(C)C)c(C)c(C)c1O.Cl [Example 93, N-(4-hydroxy-2,3,5-trimethylphenyl)-2-isobutyryl-7-(pyrrolidin-1-yl)-1,2,3,4-tetrahydroisoquinoline-(3S)-carboxamide hydrochloride] | 83.4%
23 | CCCCCC(=O)N1Cc2cc(OCCCO)ccc2C[C@H]1C(=O)Nc1cc(C)c(O)c(C)c1C [Example 119, 2-hexanoyl-7-(3-hydroxypropoxy)-N-(4-hydroxy-2,3,5-trimethylphenyl)-1,2,3,4-tetrahydroisoquinoline-(3S)-carboxamide] | 84.5%
24 | CCC(=O)N1Cc2cc(N3CCCC3)ccc2C[C@H]1C(=O)Nc1cc(C)c(O)c(C)c1C.Cl [Example 91, N-(4-hydroxy-2,3,5-trimethylphenyl)-2-propionyl-7-(pyrrolidin-1-yl)-1,2,3,4-tetrahydroisoquinoline-(3S)-carboxamide hydrochloride] | 71.1%
